Tests used:
[1] = refractive index (Na D-line) (dimensionless); conditions: 101.33 kPa, Liquid
[2] = for mass density / speed of sound / viscosity: 100 kPa, Liquid
[3] = xn = mol fraction of the nth substance listed; conditions: x2 = 0; for mass density / speed of sound / viscosity: 100 kPa, Liquid
[4] = refractive index (Na D-line) (dimensionless); xn = mol fraction of the nth substance listed; conditions: 100 kPa, Liquid, x2 = 0

COc1ccc(C=O)cc1 [4-methoxybenzaldehyde]
Conditions	mass density, [2] [kg/m3]	refractive index, [1]	speed of sound, [2] [m/s]	surface tension liquid-gas, [2] [mN/m]	viscosity, [2] [mPa·s]
303.15 K	1125.5	1.5571	1684	99.08	3.275
313.15 K	1119.1	1.5488	1631	96.11	2.97
323.15 K	1114.1	1.5463	1571	94.1	2.442

Clc1ccccc1 [chlorobenzene]
Conditions	mass density, [2] [kg/m3]	refractive index, [1]	speed of sound, [2] [m/s]	surface tension liquid-gas, [2] [mN/m]	viscosity, [2] [mPa·s]
303.15 K	1102	–	1220	33.6	0.7105
313.15 K	1080	–	–	32.3	0.6914
323.15 K	1067.4	1.548	695	31.26	0.5543

Clc1ccccc1 [chlorobenzene] + COc1ccc(C=O)cc1
Conditions	mass density, [3] [kg/m3]	refractive index, [4]	speed of sound, [3] [m/s]	surface tension liquid-gas, [3] [mN/m]	viscosity, [3] [mPa·s]
303.15 K	1102	1.559	1220	33.6	0.7105
313.15 K	1080	1.5509	–	32.3	0.6914
323.15 K	1067.4	1.548	695	31.26	0.5543

Source: the NIST ThermoML archive (doi:10.1021/je700714m)
